# Test results published in US7906484B2, “Complex for transferring an anionic substance into a cell” (Alnylam Pharmaceuticals, Inc., priority 2006, dated 2011).
# Assays:
# [1] = test system: ENaC-alpha mRNA in H441 cells; experiment: siRNA delivery into H441 cells, ENaC-alpha mRNA quantified by bDNA assay; format: cell-based, human; conditions: AD-7007
# Procedure: In order to test the potential of adding Histidine residues for improving the cross-membrane transport properties of peptides, we synthesized a modified ppTG20, termed ppTGHis herein, wherein 4 consecutive Histidine moieties were added to the C-terminus of ppTG20. We then compared the transport of siRNAs complexed with ppTG20 or ppTGHis into H441 cells, as evaluated by the ability of siRNAs to inhibit the expression of a gene constitutively expressed in H441 cells, ENaC-alpha. […]
# For transfection with peptide/siRNA complexes, H441 cells were seeded at 1.5×10^4 cells/well on 96-well plates (Greiner Bio-One GmbH, Frickenhausen, Germany) in 75 μl of growth medium. […] Thereafter, the cells were lysed by adding 50 μl of lysis mixture (content of the QuantiGene bDNA-kit from Panomics, Inc., Fremont, USA) to each well containing 100 μl of growth medium at 53° C. for 30 min, and ENaC mRNA levels were subsequently quantified with the Quantigene Explore Kit (Panomics, Inc., Dumbarton Circle Fremont, USA, cat. No. QG-000-02) according to the manufacturer's protocol. Finally, chemoluminescence was measured in a Victor2-Light (Perkin Elmer, Wiesbaden, Germany) as RLUs (relative light units) and values obtained with the hENaC probeset were normalized to the respective GAPDH values for each well (probe sequences shown in Table 2 and Table 3). […]
# eGFP-mRNA = experiment: Influence of peptide/siRNA ratio on siRNA activity in HCT116 cells; format: cell-based; conditions: 250 nM siRNA
# Procedure: The optimal ratio of (peptide):(anionic substance) for complex formation, was determined in section 3 above to lie in the range of 8:1 to 13:1 by titrating a fixed concentration of the anionic substance with increasing amounts of the peptide, and monitoring complex formation by electrophoresis of the mixture. To further validate and possibly narrow down the optimum ratio of peptide/anionic substance, an assay with a functional readout was performed. HCT116 cells were incubated with siRNA complexes as described above at concentrations such that the amount of siRNA in the incubation mixture corresponds to a 250 nM concentration of the siRNA, and the peptide/siRNA ratio was 8:1, 10:1, 12:1, or 14:1.
# [2] = test system: E6AP mRNA in HCT116 cells; experiment: siRNA AD-8724 delivery into HCT116 cells, inhibition of E6AP mRNA expression by bDNA assay; format: cell-based, human; conditions: 4° C., siRNA/peptide conc. 250 nM/2.5 μM
# [3] = test system: E6AP mRNA in HCT116 cells; experiment: as above; format: cell-based, human; conditions: for capacity for cross membrane transport of siRNA (quantity not given): 37° C., siRNA/peptide conc. 250 nM/2.5 μM
# Procedure: All further experiments were carried out using HCT116 cells and inhibition of E6AP expression as readout.
# HCT116-cells were obtained from the American Type Culture Collection (ATCC# CCL-247). They were cultured in McCoy's 5A medium (Biochrom AG, Berlin, Germany, Cat.# F1015) containing 10% fetal calf serum (FCS; Biochrom AG, Berlin, Germany, Cat.# S0115) and 2 mM L-Glutamin (Biochrom AG, Berlin, Germany, Cat.#: K0283) (standard growth medium). For incubation with peptide/siRNA, complexes, the medium was replaced by serum-free McCoy's 5A medium containing 2 mM L-Glutamin (serum free medium). After incubation with complexes for 4 h, McCoy's 5A medium containing 30% fetal calf serum and 2 mM L-Glutamin (triple FCS medium) was added to restore an overall 10% FCS in the medium.
# The E6AP-specific siRNA denoted AD-8724 herein was used, having the following sequences: antisense strand: 5′-ucacauuccacguuaggugTsT-3′ (SEQ ID NO:51), sense strand 5′-caccuaacguggaaugugaTsT-3′; (SEQ ID NO:52; lower case letters: ribonucleotides; s: phosphorothioate backbone linkage). As a negative control, an siRNA specific for eGFP, denoted AD-5107 herein, was used, having the following sequences: antisense strand: 5′-aagucgugcugcuucauguggOMesuOMesc-3′ (SEQ ID NO:19), sense strand 5′-[…]-3′ (SEQ ID NO:18; lower case letters: ribonucleotides; subscript OMe: 2′-O-methyl-ribonucleotide; s: phosphorothioate backbone linkage). In addition to the non-specific control siRNA AD-5107, mock transfected cells treated with standard growth medium only were used as negative controls. As a positive control, AD-8724 was transfected into the cells using Lipofectamine2000™ (Invitrogen, Karlsruhe, Germany, Cat. No. 11668-019). As a further control, AD-5107 was transfected into cells using Lipofectamine2000™. All assays were performed in quadruplicates.
# SiRNA/peptide complexes were prepared by mixing a solution of the siRNA in deionized water with a solution of the peptide in deionized water at the appropriate concentrations to give the desired ratio of siRNA/peptide at the desired concentration of the complex. The mixture was incubated at room temperature for 30 min and kept at 4° C. until use, and used within 24 h.
# For transfections with siRNA/peptide complexes, 1.5×10^5 HCT116-cells per well in 150 μl standard growth medium were seeded into polystyrene 96 well plates and grown for 24 h at 37° C. in an atmosphere containing 5% CO2. The medium was removed by aspiration, and 90 μl serum-free medium and 10 μl of siRNA/peptide complex solution were added. Cells were incubated for 4 h at 37° C./5% CO2, 50 μl triple FCS medium were added, and the cells incubated for another 20 h under identical conditions. Subsequently, E6AP mRNA content was determined as described below.
# For Lipofectamine2000™ transfections, 0.5 μl Lipofectamine2000™ were mixed with 12 μl OptiMem™ (Invitrogen, Karlsruhe, Germany, Cat. No. 11058-021) and incubated for 15 min. 1 μl of a 5 μM solution of the respective siRNA in PBS (Biochrom AG, Berlin, Germany, Cat-No: L182-05) were added to 11.5 μl OptiMeM™, mixed with the Lipofectamine2000™/OptiMem™ solution, and incubated for further 15 min. 1.5×10^5 HCT116-cells per well in 150 μl standard growth medium were grown for 24 h as described above, the growth medium removed from the cells by aspiration, and 75 μl fresh standard growth medium and the 25 μl of the siRNA/Lipofectamine2000™ mix were added to the well, to give a final siRNA concentration of 50 nM. The cells were incubated for 24 h at 37° C./5% CO2 and E6AP mRNA concentration determined.
# The QuantiGene™ bDNA-kit from Panomics, Inc., Fremont, USA, was used according to manufacturer's instructions. Briefly, cells were lysed by adding 50 μl of Lysis Mixture (from QuantiGene bDNA-kit) to each well and incubation at 53° C. for 1 h. […]
# [4] = AD-8724, siRNA/peptide conc. 25 nM/250 nM
# [5] = AD-8724, siRNA/peptide conc. 250 nM/2.5 μM
# [6] = AD-8724, siRNA/peptide conc. 1 μM/10 μM
# [7] = siRNA AD-8724 250 nM, molar peptide/siRNA ratio 12.5:1
Sequence,transfection efficiency and resulting siRNA activity compared with Lipofectamine [1],transfection efficiency and resulting siRNA activity relative to ppTG20 [1],Remaining eGFP-mRNA in % of mock-transfected controls (eGFP-mRNA; peptide/siRNA ratio 8:1) [%],Remaining eGFP-mRNA in % of mock-transfected controls (eGFP-mRNA; peptide/siRNA ratio 10:1) [%],Remaining eGFP-mRNA in % of mock-transfected controls (eGFP-mRNA; peptide/siRNA ratio 12:1) [%],Remaining eGFP-mRNA in % of mock-transfected controls (eGFP-mRNA; peptide/siRNA ratio 14:1) [%],capacity for cross membrane transport of siRNA (quantity not given) [2] [%],capacity for cross membrane transport of siRNA (quantity not given) [3],"remaining E6AP mRNA (in % of mock) [3, 4] [%]","remaining E6AP mRNA (in % of mock) [3, 5] [%]","remaining E6AP mRNA (in % of mock) [3, 6] [%]","remaining E6AP mRNA (in % of mock) [3, 7] [%]"
"GLFRALLRLLRSLWRLLLRAHHHH [ppTGHis, ppTG20 with 4 histidines added to the C-terminus]",comparable to that of Lipofectamine™,approximately 10 fold,–,–,–,–,–,–,–,–,–,–
HLFRALLRLLRHLWRLLLRA [AP-10],–,–,42 ± 3,24 ± 4,24 ± 2,32 ± 4,81 ± 16,13 ± 8%,98 ± 8,28 ± 4,17 ± 1,41 ± 21
RLFRALLRLLRSLWRLLRRA [AP-4],–,–,23 ± 6,18 ± 6,52 ± 6,43 ± 4,56 ± 4,30 ± 5% RT,96 ± 24,49 ± 11,37 ± 9,34 ± 6
